Measurements: patent US8889902B2, “Acetylsalicylic acid salts” (priority 2009, dated 2014)
Marks after values point to notes of the source that are not given here.

What was measured:
[1] = tested on: blood flow in the right ear artery; assay: Cutaneous vasodilatation caused by nicotinic acid, ear artery blood flow; type: in vivo, Wistar rats; conditions: maximal change to baseline
Experimental: Model. […] Blood pressure was measured in left carotid artery, ECG recorded by standard II lead. […] Blood flow, ECG and arterial pressure were registered by AD Instruments PowerLab systems and stored in computer for further processing. […] The average blood flow data for each animal were calculated taking into account the average blood pressure and compared with initial and control. […] Statistics.

[2] = tested on: serum lipid levels (C, HDL, LDL, TG); assay: Chronic hyperlipidemia model (Triton WR1339, 3 weeks); type: in vivo, Wistar rats; conditions: TR 250 mg/kg 3x/week
Experimental: Male Wistar rats were used. Animals were held in climatized rooms 22±1° C. with relative humidity 60±5%, and 12/12-hour light/dark cycle with free access to water and feed. Initial weight of animals was 220-240 g. Experimental chronical (subchronical) hyperlipidemia/hypercholesterolemia was induced by TR using the method described by Levine and Saltzman (Levine S, Saltzman A, J Pharmacol Toxicol Meth 2007; 55:224-226). Animals received 250 mg/kg of TR solution via tail vein three times a week for 3 weeks. Solutions of test substances or water for Control and TR group was introduced p.o. once a day one hour before injection of TR solution or taking a blood sample according to the following scheme:
Blood for biochemical analyses was obtained after 1, 2 and 3 weeks (on the next day after the TR injection) by cardiac punction under ether narcosis. Serum was separated by centrifugation and analyzed for total C, HDL, LDL and TG levels by commercial kits. Statistics.

tail bleeding = assay: Tail bleeding time during thrombosis experiment; type: in vivo, rats; conditions: for Tail bleeding time, %: control = 100
Experimental: Additionally during the thrombosis experiment rat tail bleeding time was measured. The tail was transected 5 mm from the tip with scalpel and the tail was immediately immersed into 37° C. warm isotonic saline until termination of bleeding was noted. Termination of bleeding was defined as the time of complete stop of bleeding with no recurrence of bleeding within the next 30 s.

rat ear skin temperature = assay: Ear skin temperature rise caused by NA, p.o. administration; type: in vivo, Wistar rats; conditions: for Max incr. %: NA alone = 100
Experimental: Male Wistar rats (280-330 g) were used. Animals were held in groups of 6 in climatized rooms at 22±1° C., relative humidity 60±5%, and 12/12-hour light/dark cycle with free access to drinking water and feed (R3—Lactamin AB, Sweden). For registration of changes in skin temperature of intact rats contactless temperature recording method was used (Papaliodis D et al, Br J Pharmacol 2008; 153:1382-1387). Temperature measurements were performed with a hand-held infrared thermometer (Model Proscan 510, TFA-Dostman). Animals were habituated to handling and to the infrared probe for 3 days before use. Temperature readings from the dorsal side of each ear were recorded without anaesthesia at beginning and during experiment. The ear temperature was measured every 5 min. for a period of up to 60 min. The animals were returned to their cages between measurements. NA, MD and MASA were dissolved in saline and pH was corrected immediately before usage. LA (MK 0524, Cayman Chemicals) was first dissolved in DMSO and then freshly diluted with 0.9% NaCl, on each day of the experiment. The rate of NA and LA combination was based on Summary of Product Characteristics for Tredaptive™ (nicotinic acid/laropiprant) 1000 mg/20 mg modified-release tablets.
9.2.3. Investigation of the Effect of MASA/NA and MD/NA Combination on Skin Temperature at Simultaneous or 45 Min Advance p.o. Administration

CRP = CRP levels in blood, carrageneen inflammation model; type: in vivo, rats; conditions: for CRP: 5 h after carrageneen; for CRP increase %: carrageneen control = 100
Experimental: To evaluate the intensity of the inflammation process the CRP levels were determined by standard method on analyzer ? INTEGRA 400+ ? at the end of experiment (5 hours after injection of carrageneen).

[3] = tested on: hyperthermia induced by intramuscular injection of pyrogenal; assay: Preventive antipyretic activity, pyrogenal hyperthermia; type: in vivo, Wistar rats
Experimental: Experiments were conducted on 48 Wistar rats with body mass 165-182 g by intramuscular injection of pyrogenal (Gamalei State Research Institution, Moscow, Russia) in 100 μg dose (Shwarz G Y, Syubaev R D, Vedomosti NCEG lekarstvennyh sredstv MZ RF 2000; 1:44-50 (Rus). Test substances were given p.o. one hour before the pyrogenal injection. Rectal temperature was measured by electric thermometer TERMO before injection of pyrogenal (baseline) and for 3 hours after injection. The antipyretic activity was evaluated by the reduction of hyperthermic reaction 2 hours after injection of pyrogenal that correlated well with the published data (10) about the peak of reaction (Table 6). Ambient temperature was kept at 20-21° C.

platelet aggregation = assay: Platelet aggregation ex vivo after 3 days treatment; type: in vivo, rats
Experimental: Platelet aggregation was studied using whole blood impedance aggregometry on Multiplate (Multiple Platelet Function Analyzer, Dynabyte Medical, Germany) (Toth O et al, Thromb Haemost 2006; 96:781-788. […] Blood samples for in vitro experiment were collected from healthy donor B. […] In the ex vivo experiment blood was collected into plastic tubes covered with hirudin (Dynabyte Medical, Germany) from narcotized rats that were treated for 3 previous days with test substances p.o. The measurements were performed according to modified Dynabyte Medical protocol. […] After 5 min incubation and stirring at 37° C., measurements were initiated by adding of the appropriate agonist solution (sourced from Dynabyte Medical, Germany): After the thrombosis experiment the narcotized animals who received test substances for 3 days were used for platelet aggregation test ex vivo. […] Blood samples were used for measurement between 30 min and 4 h after collection. The measurements were performed according to modified Dynabyte Medical protocol (see above under Platelet aggregation).

[4] = 10 mg/kg/d p.o., repeated, 3 days
[5] = AA induced, 10 mg/kg/d p.o. 3 days
[6] = ADP induced, 10 mg/kg/d p.o. 3 days
[7] = PGE1 + ADP induced, 10 mg/kg/d p.o. 3 days
[8] = 5 mg/kg/d p.o., repeated, 3 days
[9] = AA induced, 5 mg/kg/d p.o. 3 days
[10] = ADP induced, 5 mg/kg/d p.o. 3 days
[11] = PGE1 + ADP induced, 5 mg/kg/d p.o. 3 days

O=C(O)c1cccnc1 [NA, nicotinic acid]
Changes in blood flow, % ([1]; 15 mg/kg s.c.): 55.75 ± 11.5 % | HDL after 1 week (HDL1) ([2]; NA 50 mg/kg/d p.o.): 111.3 ± 9.1 mg/dL | HDL after 2 weeks (HDL2) ([2]; NA 50 mg/kg/d p.o.): 144.7 ± 13.5 mg/dL | HDL after 3 weeks (HDL3) ([2]; NA 50 mg/kg/d p.o.): 127.3 ± 10.9 mg/dL | LDL after 1 week (LDL1) ([2]; NA 50 mg/kg/d p.o.): 216.3 ± 14.0 mg/dL | LDL after 2 weeks (LDL2) ([2]; NA 50 mg/kg/d p.o.): 250.3 ± 20.6 mg/dL | LDL after 3 weeks (LDL3) ([2]; NA 50 mg/kg/d p.o.): 265.1 ± 18.4 mg/dL | TG after 1 week (TG1) ([2]; NA 50 mg/kg/d p.o.): 734 ± 81.6 mg/dL | TG after 2 weeks (TG2) ([2]; NA 50 mg/kg/d p.o.): 860 ± 73.8 mg/dL | TG after 3 weeks (TG3) ([2]; NA 50 mg/kg/d p.o.): 828 ± 44.7 mg/dL | Total C after 1 week (C1) ([2]; NA 50 mg/kg/d p.o.): 345 ± 15.7 mg/dL | Total C after 2 weeks (C2) ([2]; NA 50 mg/kg/d p.o.): 401.1 ± 25.1 mg/dL | Total C after 3 weeks (C3) ([2]; NA 50 mg/kg/d p.o.): 405.5 ± 25.9 mg/dL | Tail bleeding time (tail bleeding; 25 mg/kg p.o., single dose): 11.5 ± 1.39 min | Tail bleeding time, % (tail bleeding; 25 mg/kg p.o., single dose): 129% | Temp. 15 min (rat ear skin temperature; NA 40 mg/kg p.o.): 32.3 ± 0.46 °C | Temp. 30 min (rat ear skin temperature; NA 40 mg/kg p.o.): 33.1 ± 0.41 °C | Temp. 45 min (rat ear skin temperature; NA 40 mg/kg p.o.): 32.4 ± 0.48 °C | Max incr. % (rat ear skin temperature; NA 40 mg/kg p.o.): 100%

C[N+](C)(C)NCCC(=O)[O-].O.O [MD, 3-(Trimethylammonioamino)propanoate dihydrate]
Tail bleeding time (tail bleeding; 25 mg/kg p.o., single dose): 10.5 ± 1.01 min | Tail bleeding time, % (tail bleeding; 25 mg/kg p.o., single dose): 118% | CRP (CRP; 100 mg/kg): 0.22 ± 0.014 mg/L | CRP increase % (CRP; 100 mg/kg): 83% | Temp. 15 min (rat ear skin temperature; MD 100 mg/kg p.o. alone): 30.1 ± 0.39^$$ ° C. | Temp. 30 min (rat ear skin temperature; MD 100 mg/kg p.o. alone): 29.8 ± 0.38^$$$ ° C. | Temp. 45 min (rat ear skin temperature; MD 100 mg/kg p.o. alone): 30.0 ± 0.34^$$ ° C. | Max incr. % (rat ear skin temperature; MD 100 mg/kg p.o. alone): 6% | Rectal temperature 120 minutes after injection ([3]; 100 mg/kg p.o. 1 h before pyrogenal): 36.2 ± 0.16 °C

CC(=O)Oc1ccccc1C(=O)[O-].C[N+](C)(C)NCCC(=O)O [MASA, 3-(trimethylammonioamino)propanoate Acetylsalicylic Acid Addition Salt]
Changes in blood flow, % ([1]; 45 mg/kg s.c.): 8.04 ± 2.02^$ % | HDL after 1 week (HDL1) ([2]; MASA 150 mg/kg/d p.o.): 100.1 ± 9.4 mg/dL | HDL after 2 weeks (HDL2) ([2]; MASA 150 mg/kg/d p.o.): 113.8 ± 13.1 mg/dL | HDL after 3 weeks (HDL3) ([2]; MASA 150 mg/kg/d p.o.): 128.3 ± 18.5 mg/dL | LDL after 1 week (LDL1) ([2]; MASA 150 mg/kg/d p.o.): 263.3 ± 19.4 mg/dL | LDL after 2 weeks (LDL2) ([2]; MASA 150 mg/kg/d p.o.): 287.6 ± 18.5 mg/dL | LDL after 3 weeks (LDL3) ([2]; MASA 150 mg/kg/d p.o.): 261.9 ± 12.6 mg/dL | TG after 1 week (TG1) ([2]; MASA 150 mg/kg/d p.o.): 964 ± 94.9 mg/dL | TG after 2 weeks (TG2) ([2]; MASA 150 mg/kg/d p.o.): 1079 ± 84 mg/dL | TG after 3 weeks (TG3) ([2]; MASA 150 mg/kg/d p.o.): 982 ± 72.7 mg/dL | Total C after 1 week (C1) ([2]; MASA 150 mg/kg/d p.o.): 375.9 ± 25.8 mg/dL | Total C after 2 weeks (C2) ([2]; MASA 150 mg/kg/d p.o.): 406.7 ± 19.8 mg/dL | Total C after 3 weeks (C3) ([2]; MASA 150 mg/kg/d p.o.): 409 ± 39.4 mg/dL | Tail bleeding time (tail bleeding; 10 mg/kg p.o., single dose): 12.1 ± 2.20 min | Tail bleeding time, % (tail bleeding; 10 mg/kg p.o., single dose): 136% | Tail bleeding time (tail bleeding; [4]): 13.1 ± 2.63 min | Tail bleeding time, % (tail bleeding; [4]): 152% | AUC (platelet aggregation; [5]): 232 ± 44.1^2&a AU*min | Amax (platelet aggregation; [5]): 48.2 ± 9.7^3&a AU | AUC (platelet aggregation; [6]): 528 ± 46.5^1 AU*min | Amax (platelet aggregation; [6]): 75.5 ± 12.8^2 AU | AUC (platelet aggregation; [7]): 195 ± 35.3^3 AU*min | Amax (platelet aggregation; [7]): 41.4 ± 14.8^2 AU | CRP (CRP; 150 mg/kg): 0.19 ± 0.009^#$ mg/l | CRP increase % (CRP; 150 mg/kg): 33% | CRP (CRP; 300 mg/kg): 0.21 ± 0.014 mg/L | CRP increase % (CRP; 300 mg/kg): 67% | Temp. 15 min (rat ear skin temperature; MASA 150 mg/kg p.o. alone): 29.9 ± 0.33^$$ ° C. | Temp. 30 min (rat ear skin temperature; MASA 150 mg/kg p.o. alone): 29.5 ± 0.35^$$$ ° C. | Temp. 45 min (rat ear skin temperature; MASA 150 mg/kg p.o. alone): 29.6 ± 0.39^$$ ° C. | Max incr. % (rat ear skin temperature; MASA 150 mg/kg p.o. alone): 6% | Rectal temperature 120 minutes after injection ([3]; 75 mg/kg p.o. 1 h before pyrogenal): 36.3 ± 0.20 °C | Rectal temperature 120 minutes after injection ([3]; 150 mg/kg p.o. 1 h before pyrogenal): 36 ± 0.21 °C | Rectal temperature 120 minutes after injection ([3]; 300 mg/kg p.o. 1 h before pyrogenal): 35.8 ± 0.16***^$ ° C.

CC(=O)Oc1ccccc1C(=O)O [ASA, acetylsalicylic acid]
Tail bleeding time (tail bleeding; 5 mg/kg p.o., single dose): 13.8 ± 3.27 min | Tail bleeding time, % (tail bleeding; 5 mg/kg p.o., single dose): 155% | Tail bleeding time (tail bleeding; [8]): 17.8 ± 3.17^1 min | Tail bleeding time, % (tail bleeding; [8]): 207% | AUC (platelet aggregation; [9]): 550 ± 31.3^2 AU*min | Amax (platelet aggregation; [9]): 86.1 ± 6.8^2 AU | AUC (platelet aggregation; [10]): 768 ± 53.2 AU*min | Amax (platelet aggregation; [10]): 150.3 ± 13.5 AU | AUC (platelet aggregation; [11]): 794 ± 48.6 AU*min | Amax (platelet aggregation; [11]): 147.2 ± 11.8 AU | CRP (CRP; 100 mg/kg): 0.20 ± 0.018 mg/L | CRP increase % (CRP; 100 mg/kg): 50% | Rectal temperature 120 minutes after injection ([3]; 50 mg/kg p.o. 1 h before pyrogenal): 35.6 ± 0.19***^$ ° C.
